Measurements published in US11628226B2, “Methods and gene therapy constructs for treating GM2 gangliosidoses” (priority 2016, dated 2023).

What was measured:
[1] = test system: Sandhoff mouse (hexb-/-); experiment: Survival of SD mice (Kaplan-Meier, humane end point); assay type: in vivo; conditions: for Survival in conjunction with HEXB-HEXA: AAV9-HEXB-HEXA neonatal day one 2×10^13 vg/kg plus daily oral drug from eight weeks; for Survival time: untreated SD mice 110 days; for Mice that did not reach humane end point after 210 days: drug in conjunction with HEXB-HEXA, n=6 per group
Experimental: The hexb−/− experimental mice were obtained from Jackson Laboratories. From these, a colony was established at Queen's University through heterozygous breeding (hexb+/−). Genotyping of the mice was carried out via PCR amplification from animal ear punches taken at the time of weaning (three weeks of age). Experimental animals were obtained through mutant cross breeding (hexb−/−). The mice were maintained on a 12-hour light cycle from 7 am to 7 pm. All experimental protocols and procedures were performed in accordance with and were approved by the Queen's University Animal Care Committee.
Neonatal mice were intravenously injected with the ssAAV/HEXB-HEXA vector or a vehicle injection through the superficial temporal vein on day 0-1. Each treated mouse received an injection of 2.04×10^10 vg/mouse in a volume of 50 uL PBS with […] NaCl and 5% sorbitol (vehicle). Untreated mice received an injection of 50 uL vehicle. During the injections, the dames were removed from the pups and placed in a clean cage. The cage of the pups alone was placed on a heating pad to keep them warm. Pups were then removed from the cage, one at a time, and placed over an LED light to aid in visualization of the superficial temporal vein. The pups received the injection using a 30 gauge needle and 1 mL syringe. After the injection, pressure was applied to the mouse using sterile gauze and the pup was returned to the home cage. The dame was returned to the cage with the pups following the completion of all injections. Pups were then monitored closely for several days to ensure survival.
Starting at eight weeks of age, each drug treatment cohort received pyrimethamine, indomethacin, or ITF2357 at a dose of 1 mg/kg/day. Drug treatments were administered in the morning of the 12-hour light cycle via oral gavage using a 22 g curved feeding needle from Kent Scientific. ITF2357 was dissolved in ddH2O by heating to 85° C. while stirring for 1 hour. Indomethacin and pyrimethamine were each dissolved in 0.5% methylcellulose by heating to 80° C. while stirring for 1 hour. Each of these was stored at 4° C. for up to 2 weeks.
(§1) Animal tissues were collected at designated 16 week end points and long term humane end points. The humane end points were determined by either […] loss of peak body weight or an inability to right itself in 10 seconds. Euthanization was carried out via CO2 asphyxiation followed by cardiac puncture and perfusion with 10 mL of chilled PBS. For biochemical analysis sections of the forebrain, midbrain, hindbrain, cervical spinal cord, and lumbar spinal cord were collected along with the heart, lungs, liver, spleen, kidney, gonads, and a section skeletal muscle. These were all frozen immediately for further processing. For histological purposes, sections of the midbrain and liver were collected, fixed in 4% paraformaldehyde overnight and then immersed in 100% ethanol until sent to the Queen's University Histology department for paraffin embedding. Additional midbrain sections were collected from a number of mice and frozen in liquid nitrogen. Blood was collected via the saphenous vein on a monthly basis starting at 8 weeks and continuing until the humane end point. Additionally, blood was collected via the cardiac puncture during euthanization. Serum was separated from blood samples by centrifugation of 4000 rpm for 10 min and frozen immediately for storage.
To evaluate the efficacy of a single intravenous […] of rAAV9 expressing the human HEXA and HEXB cDNA in ameliorating the biochemical and neurological phenotype in SD, AAV9-HEXB-HEXA or a vehicle control was administered to postnatal day one neonates at a relatively low dose of 2×10^13 vg/kg via superficial temporal vein. Mice were all followed until they reached 32 weeks of age, or a humane end point.
Survival was analyzed with the log-rank (Mantel-Cox) test. […] This relationship is shown by the Kaplan-Meier plots in FIG. 3. […]

[2] = test system: Sandhoff mouse (hexb-/-); experiment: Open field test of motor activity in SD mice; assay type: in vivo; conditions: HEXB-HEXA treated SD mice plus drug, week 24
Experimental: Behavioural testing was carried out on a bi-weekly basis from the age of eight weeks until each end point. The behavioural testing was done in three different parts and always assessed in the morning of the 12 hour light cycle.
Open Field Test: Used to assess overall locomotion and activity levels. The mouse was placed in a 40 cm×40 cm arena with walls. Time moving, rearing activity and the distance travelled were all electronically recorded by an ActiMot system. Speed was calculated by dividing the distance travelled by the time moving. Each mouse underwent one five minute trial.
To determine if the administration of AAV9-HexB-HexA improved motor activity in the neonatally treated SD mice, distance travelled in the 5-minute open-field test was analyzed. Testing began at eight weeks, when motor deterioration in SD mice begins to show and continued on a bi-weekly basis to 24 weeks. […] In FIG. 4, values at each point represent the mean.

[3] = test system: GM2 ganglioside storage in mouse brain; experiment: GM2 ganglioside levels in midbrain by thin layer chromatography; assay type: in vivo; conditions: 16-week midbrain, drug on its own or in addition to HEXB-HEXA
Experimental: as §1, with “storage. […]” for “storage.”

[4] = test system: β-hexosaminidase A (HexA); experiment: HexA activity in midbrain (4-MUGS assay); assay type: in vivo, mouse; conditions: 16-week midbrain, drug alone or in conjunction with HEXB-HEXA
Experimental: Animal tissues were collected at designated 16 week end points and long term humane end points. The humane end points were determined by either […] loss of peak body weight or an inability to right itself in 10 seconds. Euthanization was carried out via CO2 asphyxiation followed by cardiac puncture and perfusion with 10 mL of chilled PBS. For biochemical analysis sections of the forebrain, midbrain, hindbrain, cervical spinal cord, and lumbar spinal cord were collected along with the heart, lungs, liver, spleen, kidney, gonads, and a section skeletal muscle. These were all frozen immediately for further processing. […]
Total hexosaminidase activity and Hex activity was measured as previously described (Maegawa et al. 2007; Tropak et al. 2004). […] Total hexosaminidase activity was determined through the use of the 4-methylumbelliferyl-2-acetamido-2-deoxy-β-D-glucopyranoside (4-MUG) assay, whereas the HexA enzyme activity alone was determined through the use of the 4-methylumbelliferyl-7-6-sulfo-2-acetamido-2-deoxy-β-D-glucopyranoside (4-MUGS) assay. Beta galactosidase activity was determined through the use of 4-methylumbelliferyl-β-D-galactopyranoside assay. […] Briefly, the samples were incubated with the fluorogenic substrate at 37° C. for 1 hour, then read on the plate reader with excitation wavelength of 365 nm and an emission wavelength of 450 nm. […]

[5] = SD mice, drug alone 1 mg/kg/day oral gavage from eight weeks

Row | Structure (SMILES) | Survival (mean) ([1]; SD mice, drug alone 1 mg/kg/day oral gavage from eight weeks, no significant effect) | Survival in conjunction with HEXB-HEXA ([1]; SD mice) | Survival time [1, 5] | Mice that did not reach humane end point after 210 days [1] | Mobility in the open field test in conjunction with HEXB-HEXA [2] | Additional decrease in GM2 ganglioside build-up [3] | Further change in HexA activity [4]
1 | CCc1nc(N)nc(N)c1-c1ccc(Cl)cc1 [pyrimethamine] | 112.5 days |  |  |  |  |  | 
2 | CCN(CC)Cc1ccc2cc(COC(=O)Nc3ccc(C(=O)NO)cc3)ccc2c1 [ITF2357] |  | significant increase in survival | 119 days | two | significant increase in mobility | No additional decrease | no further increase or decrease
3 | COc1ccc2c(c1)c(CC(=O)O)c(C)n2C(=O)c1ccc(Cl)cc1 [indomethacin] |  | significant increase in survival | 123.5 days | two | significant increase in mobility | No additional decrease | no further increase or decrease
